Data: article PMC7562719, “Discovery of a CNS penetrant small molecule SMN2 splicing modulator with improved tolerability for spinal muscular atrophy” (Scientific Reports, 2020)
pIC50: −log10 of the molar value. Read-outs that look alike come from different tables or passages of the source.

Key:
[1] = biological target: T1, rat N type calcium channel (Rattus norvegicus, UniProt Q02294); experiment: Eurofins selectivity panel: N type calcium channel; type: binding
T1 construct: purchased Eurofins Inc
T1 sequence (Q02294 whole entry): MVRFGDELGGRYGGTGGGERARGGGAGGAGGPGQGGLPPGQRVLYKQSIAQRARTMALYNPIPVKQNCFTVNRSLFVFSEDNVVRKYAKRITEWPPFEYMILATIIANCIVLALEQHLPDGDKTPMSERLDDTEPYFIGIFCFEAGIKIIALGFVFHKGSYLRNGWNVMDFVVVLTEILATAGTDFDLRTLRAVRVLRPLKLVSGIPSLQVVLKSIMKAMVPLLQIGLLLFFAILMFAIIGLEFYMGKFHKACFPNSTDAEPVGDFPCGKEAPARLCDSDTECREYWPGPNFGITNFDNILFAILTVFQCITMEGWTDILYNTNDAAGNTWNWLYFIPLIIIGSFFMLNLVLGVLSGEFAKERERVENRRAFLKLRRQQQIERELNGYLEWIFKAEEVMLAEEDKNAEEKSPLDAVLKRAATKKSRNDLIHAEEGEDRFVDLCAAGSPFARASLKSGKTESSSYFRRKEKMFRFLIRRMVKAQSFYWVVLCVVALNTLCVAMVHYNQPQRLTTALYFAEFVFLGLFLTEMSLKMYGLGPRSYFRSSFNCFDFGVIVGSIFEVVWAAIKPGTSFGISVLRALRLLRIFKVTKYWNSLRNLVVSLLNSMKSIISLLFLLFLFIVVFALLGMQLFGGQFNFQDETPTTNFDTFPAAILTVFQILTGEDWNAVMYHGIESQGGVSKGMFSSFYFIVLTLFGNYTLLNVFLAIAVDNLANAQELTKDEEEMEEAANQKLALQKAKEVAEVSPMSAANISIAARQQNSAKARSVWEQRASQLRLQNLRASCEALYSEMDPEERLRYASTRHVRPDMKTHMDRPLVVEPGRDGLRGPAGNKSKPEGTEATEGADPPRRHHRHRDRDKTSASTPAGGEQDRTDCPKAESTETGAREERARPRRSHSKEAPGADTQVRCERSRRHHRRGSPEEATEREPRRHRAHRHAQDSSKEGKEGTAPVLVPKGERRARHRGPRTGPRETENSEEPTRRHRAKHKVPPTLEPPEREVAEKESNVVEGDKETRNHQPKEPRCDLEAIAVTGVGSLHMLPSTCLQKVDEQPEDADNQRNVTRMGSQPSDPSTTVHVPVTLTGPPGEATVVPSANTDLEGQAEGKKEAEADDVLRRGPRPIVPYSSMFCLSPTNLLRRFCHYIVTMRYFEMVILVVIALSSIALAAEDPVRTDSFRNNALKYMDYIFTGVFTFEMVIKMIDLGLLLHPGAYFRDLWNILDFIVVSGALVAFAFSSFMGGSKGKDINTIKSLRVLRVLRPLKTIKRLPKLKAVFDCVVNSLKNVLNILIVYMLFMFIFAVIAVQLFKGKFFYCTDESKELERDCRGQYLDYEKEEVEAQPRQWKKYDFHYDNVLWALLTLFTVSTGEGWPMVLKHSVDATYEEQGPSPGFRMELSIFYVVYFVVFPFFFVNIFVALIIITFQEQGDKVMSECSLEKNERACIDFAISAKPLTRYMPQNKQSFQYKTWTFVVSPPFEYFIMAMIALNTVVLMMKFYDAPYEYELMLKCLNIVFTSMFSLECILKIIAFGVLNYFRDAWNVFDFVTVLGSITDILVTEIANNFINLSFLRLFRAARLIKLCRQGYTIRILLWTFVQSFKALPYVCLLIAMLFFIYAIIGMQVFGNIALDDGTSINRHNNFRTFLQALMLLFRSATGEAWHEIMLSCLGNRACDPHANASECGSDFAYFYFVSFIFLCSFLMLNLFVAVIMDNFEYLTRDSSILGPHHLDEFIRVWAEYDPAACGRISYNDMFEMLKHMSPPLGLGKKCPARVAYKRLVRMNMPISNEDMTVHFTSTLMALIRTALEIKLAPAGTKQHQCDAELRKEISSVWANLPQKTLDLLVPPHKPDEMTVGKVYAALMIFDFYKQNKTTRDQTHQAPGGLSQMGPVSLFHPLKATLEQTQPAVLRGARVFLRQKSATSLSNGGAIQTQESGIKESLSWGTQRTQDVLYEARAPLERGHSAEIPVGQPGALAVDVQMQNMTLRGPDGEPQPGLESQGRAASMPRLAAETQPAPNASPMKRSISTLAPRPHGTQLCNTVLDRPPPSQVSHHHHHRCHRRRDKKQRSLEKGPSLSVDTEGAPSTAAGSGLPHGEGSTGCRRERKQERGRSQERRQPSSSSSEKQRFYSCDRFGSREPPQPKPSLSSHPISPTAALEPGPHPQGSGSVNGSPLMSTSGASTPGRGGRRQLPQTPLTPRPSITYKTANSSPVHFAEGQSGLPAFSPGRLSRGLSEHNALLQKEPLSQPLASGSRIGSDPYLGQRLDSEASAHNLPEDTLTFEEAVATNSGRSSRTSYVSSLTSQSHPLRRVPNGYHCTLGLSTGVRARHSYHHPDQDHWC
T1 sequence (P54287 whole entry partner): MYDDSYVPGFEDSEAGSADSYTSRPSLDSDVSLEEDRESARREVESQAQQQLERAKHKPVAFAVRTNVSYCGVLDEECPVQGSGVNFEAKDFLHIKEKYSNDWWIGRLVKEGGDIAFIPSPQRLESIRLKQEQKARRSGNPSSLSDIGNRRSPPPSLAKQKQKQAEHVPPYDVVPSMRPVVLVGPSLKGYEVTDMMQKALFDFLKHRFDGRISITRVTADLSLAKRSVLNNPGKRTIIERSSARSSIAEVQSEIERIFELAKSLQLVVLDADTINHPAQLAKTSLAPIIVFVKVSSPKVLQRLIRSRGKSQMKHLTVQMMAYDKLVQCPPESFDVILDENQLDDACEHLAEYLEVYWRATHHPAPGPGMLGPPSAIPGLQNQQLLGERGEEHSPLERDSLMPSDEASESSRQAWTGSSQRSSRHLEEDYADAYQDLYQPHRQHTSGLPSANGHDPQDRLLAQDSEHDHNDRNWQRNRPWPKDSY
T1 sequence (P54290 25-944 partner limits assumed): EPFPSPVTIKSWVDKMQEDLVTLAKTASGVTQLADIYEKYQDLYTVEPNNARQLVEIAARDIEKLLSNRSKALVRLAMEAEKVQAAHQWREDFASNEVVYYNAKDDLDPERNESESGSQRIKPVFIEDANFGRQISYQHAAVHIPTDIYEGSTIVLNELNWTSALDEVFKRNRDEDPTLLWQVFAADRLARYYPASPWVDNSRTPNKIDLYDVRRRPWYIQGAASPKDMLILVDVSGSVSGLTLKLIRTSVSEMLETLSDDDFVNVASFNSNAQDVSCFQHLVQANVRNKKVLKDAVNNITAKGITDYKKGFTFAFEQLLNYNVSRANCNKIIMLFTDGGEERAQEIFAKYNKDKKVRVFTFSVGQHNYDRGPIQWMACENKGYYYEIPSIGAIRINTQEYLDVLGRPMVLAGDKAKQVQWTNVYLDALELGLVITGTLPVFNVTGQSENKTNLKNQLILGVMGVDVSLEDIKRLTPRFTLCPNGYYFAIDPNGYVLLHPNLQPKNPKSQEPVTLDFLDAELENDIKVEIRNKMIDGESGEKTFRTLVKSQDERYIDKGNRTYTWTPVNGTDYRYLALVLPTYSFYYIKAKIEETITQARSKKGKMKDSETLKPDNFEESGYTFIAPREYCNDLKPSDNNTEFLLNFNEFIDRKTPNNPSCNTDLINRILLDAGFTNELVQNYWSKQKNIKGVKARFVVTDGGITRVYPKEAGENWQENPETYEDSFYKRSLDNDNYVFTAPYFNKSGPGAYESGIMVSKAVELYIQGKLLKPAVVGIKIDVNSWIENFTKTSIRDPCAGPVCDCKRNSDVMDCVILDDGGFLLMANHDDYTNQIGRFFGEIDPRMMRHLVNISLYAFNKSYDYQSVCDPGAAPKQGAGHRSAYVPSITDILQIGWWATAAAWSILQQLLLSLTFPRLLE
T1 sequence (P54290 945-1091 partner limits assumed): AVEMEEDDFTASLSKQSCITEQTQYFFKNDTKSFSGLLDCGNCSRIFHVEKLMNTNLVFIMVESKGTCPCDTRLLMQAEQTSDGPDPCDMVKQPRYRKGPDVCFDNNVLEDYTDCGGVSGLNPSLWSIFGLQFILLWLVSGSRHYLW

[2] = general in vitro toxicity and ADME tests; conditions: solubility, PAMPA, MDR1, stability, CYP inhibition, CYP induction/PXR, hERG, cytotoxicity, umu, Ames, in vitro micronucleus test
[3] = pharmacokinetic study in neonatal/juvenile FVB mice, intraperitoneal; type: in vivo; conditions: for Kp / Cmax / MRT / Tmax: male, mouse, ip; for Kp: brain/plasma, read-out: Kp (AUC0–120h ratio)
Description: TEC-1 was intraperitoneally administered at doses of 0.2, 0.6, and 2 mg/kg (suspended in saline/0.9% NaCl solution) to male FVB mice (10 days old, 3 mice per a time point). After administration, brain samples and blood samples with heparinized capillary tubes from heart were collected. Blood samples were centrifuged to obtain the plasma fraction. Brain samples were homogenized in 20% (w/v) saline. The samples were deproteinized with acetonitrile followed by centrifugation and the supernatants were analyzed by LC/MS/MS to obtain TEC-1 concentrations of the plasma and brain.

SMNΔ7 mice = experiment: murine model of SMA (SMNΔ7 mice): survival, body weight, righting reflex; type: in vivo, mouse; conditions: for SMA mice that survived / survivors at P65 / total mice: 20 mg/kg; for survivors at P65 / total mice: SMA mice
Description: A pair of heterozygous SMNΔ7 mice[28] (mSmn+/−, SMN2+/+, SMNΔ7+/+) were purchased from Jackson Laboratory (USA, stock number 005025). The homozygous SMNΔ7 mice (affected and referred to as “SMNΔ7 mice”; mSmn−/−, SMN2+/+, SMNΔ7+/+) was generated by cross-bleeding of heterozygous SMNΔ7 mice. All experiments were approved and monitored by the animal experiment committee of Gifu Pharmaceutical University and were performed after approval by the Bioethics and Biosafety Committee of Gifu Pharmaceutical University. All procedures relating to animal care and treatment confirmed to animal care guidelines issued by the National Institutes of Health.
SMNΔ7 mice were treated with 2, 6, and 20 mg/kg TEC-1 (succinate) once a day by intraperitoneal injection (TERUMO, Japan) from P2 to P23. TEC-1 was diluted in 0.9% NaCl (aqueous) for intraperitoneal injection. After P24, TEC-1 was administrated one a day orally using 0.4 × 0.7 mm feeding needle (Primetech Corporation, Japan). For oral administration, TEC-1 was diluted in distilled water (Otsuka Pharmaceutical Factory, Japan). Heterozygous mice received equal volumes of vehicle.
Survival and body weight were assessed daily. Righting reflex test[15] tests were performed […] at P6, 11 and 16. Righting time was defined as the time it took a pup to turn over to its front after being placed completely on its back (maximum 60 s). Dead individuals were set to 60 s.

ChAT protein = ChAT protein in iPSC-derived motor neurons (western blot); type: cell-based, human; conditions: iPSC-derived motor neurons (GM24468), 3 days
Description: GM03813 fibroblasts and GM24468-derived MNs were seeded at 1.5 × 10^4 and 4 × 10^4 cells/well in 96-well plates and were treated with TEC-1 or SMN-C3 for 72 h at the concentration of 0.01, 0.03, 0.1, 0.3, 1, or 3 µM. After 72 h exposure of compound, GM24468 derived MNs and GM03813 fibroblasts were washed once with D-PBS (-), lysed with RIPA buffer (Wako) containing cOmplete (Sigma-Aldrich) and PhosSTOP (Sigma-Aldrich). The lysates were spun at 15,000 rpm for 15 min at 4 °C, and the supernatants were collected. The protein concentration was quantified with BCA kit (Wako). The lysates, adjusted to have the same protein amount, were mixed with NuPAGE LDS sample buffer containing DTT and heated at 95 °C for 5 min. Except for HTT detection, each sample (2 µg total protein/lane) was loaded Perfect NT Gel 7.5–15% gel (DRC, Japan) and run at 150 V for 60–70 min with Tris/glycine/SDS running buffer (BIO-RAD, USA). The proteins were transferred from the gel to Immobilon-P PVDF Membrane (Millipore, USA) with a transfer solution comprising 10% methanol and 1 × Novex Tris-glycine transfer buffer at 25 V for 180–240 min using Criterion blotter (BIO-RAD). […] After washing with TBS-T four times, chemiluminescence signals were detected by Immunostar Zeta (Wako) and LAS-4000 (GE healthcare).

[4] = brain, 0.2 mg/kg i.p. single, juvenile FVB mice
[5] = brain, 0.6 mg/kg i.p. single, juvenile FVB mice
[6] = brain, 2 mg/kg i.p. single, juvenile FVB mice
[7] = plasma, 0.2 mg/kg i.p. single, juvenile FVB mice
[8] = plasma, 0.6 mg/kg i.p. single, juvenile FVB mice
[9] = plasma, 2 mg/kg i.p. single, juvenile FVB mice

Cc1cn2nc(-c3nc4ccc(N5CCN(C)CC5)cc4c(=O)[nH]3)cc2c(C)n1 [TEC-1, 2-(4,6-dimethylpyrazolo[1,5-a]pyrazin-2-yl)-6-(4-methylpiperazin-1-yl)quinazolin-4(3H)-one]
pIC50 [1]: 5.06 | general in vitro toxicity and ADME profile [2]: good profiles | AUC0–24 h [3, 4]: 69.7 ng･h/g | AUC0–120 h [3, 4]: 87.7 ng･h/g | AUC0–24 h [3, 5]: 600.3 ng･h/g | AUC0–120 h [3, 5]: 716.7 ng･h/g | AUC0–24 h [3, 6]: 3547.9 ng･h/g | AUC0–120 h [3, 6]: 8261.5 ng･h/g | Kp ([3]; 0.2 mg/kg i.p. single, juvenile FVB mice): 5.8 | Kp ([3]; 0.6 mg/kg i.p. single, juvenile FVB mice): 4.8 | Kp ([3]; 2 mg/kg i.p. single, juvenile FVB mice): 4.5 | Cmax [3, 4]: 10.5 ng/g | MRT [3, 4]: 11.2 h | Tmax [3, 4]: 30 min | Cmax [3, 5]: 63.2 ng/g | MRT [3, 5]: 11.8 h | Tmax [3, 5]: 60 min | Cmax [3, 6]: 219 ng/g | MRT [3, 6]: 35.8 h | Tmax [3, 6]: 60 min | Cmax ([3]; plasma, 0.2 mg/kg i.p. single, juvenile (10-day-old) FVB mice, n = 3, pool): 2.2 ng/mL | MRT [3, 7]: 7.21 h | Tmax [3, 7]: 30 min | Cmax [3, 8]: 11.3 ng/mL | MRT [3, 8]: 10.7 h | Tmax [3, 8]: 30 min | Cmax [3, 9]: 42 ng/mL | MRT [3, 9]: 40.4 h | Tmax [3, 9]: 180 min | AUC0–24 h [3, 7]: 15.2 ng･h/mL | AUC0–120 h [3, 7]: 15.2 ng･h/mL | AUC0–24 h [3, 8]: 129.9 ng･h/mL | AUC0–120 h [3, 8]: 149.1 ng･h/mL | AUC0–24 h [3, 9]: 718.6 ng･h/mL | AUC0–120 h [3, 9]: 1829.8 ng･h/mL | righting reflex latency compared to vehicle-treated mice (SMNΔ7 mice; 2 mg/kg, P16): significantly shortened latency time | SMA mice that survived (SMNΔ7 mice; administered intraperitoneally throughout): 66% | SMA mice that survived (SMNΔ7 mice; oral administration after weaning): 40% | body mass compared to vehicle-treated SMNΔ7 mice (SMNΔ7 mice; 2, 6, 20 mg/kg once a day): increased body mass | survival compared with vehicle-treated SMNΔ7 mice (SMNΔ7 mice; 2, 6, 20 mg/kg once a day, Kaplan–Meier to P65): enhanced the survival | survivors at P65 / total mice (SMNΔ7 mice; 20 mg/kg once daily (i.p. P2-P23, then p.o.)): 4 of 10 | survivors at P65 / total mice (SMNΔ7 mice; 20 mg/kg once daily (i.p.-i.p.), TEC-1 succinate): 2 of 3 | survival until weaning (SMNΔ7 mice; all SMA model mice, 20 mg/kg intraperitoneally): survived until weaning | ChAT protein level (ChAT protein): increase the levels of choline acetyltransferase (ChAT)
